Results as given in patent US10246489B2, “Peptide inhibitors of calcium oxalate monohydrate crystallization and uses thereof” (UNIVERSITY OF HOUSTON, priority 2013, dated 2019).
Entries after “also recorded” stand apart in the source; their conditions may differ.

Legend:
[1] = In situ calcium ion-selective electrode (ISE) measurement of COM crystallization; settings: for percent reduction in COM growth rate: 20 μg/ml additive, supersaturated calcium oxalate S=5.4, stirred, ISE slope in first 40 min vs control
Experimental: The COM growth rate was measured as the slope (dCa/dt) of decreasing Ca^2+ concentration within the first 40 min of crystallization. […] The percent reduction in COM growth rate was calculated by comparing the ISE slopes of peptides and control using the formula, Percent Reduction=[1−(dCa/dt)peptide/(dCa/dt)control]×100%. Data are averages of 2 or 3 measurements (error bars equal two standard deviations);
COM crystals for bulk crystallization studies were synthesized using a reported procedure that produces micron-sized crystals with large basal (100) surfaces. COM crystals prepared with molar composition 0.7 mM CaCl2: 0.7 mM Na2C2O4: 150 mM NaCl are referred to as the control. Growth solutions prepared with peptides used 20 μg/ml of the additive (unless otherwise stated).
As such, measurements reported herein were conducted at a single peptide concentration (20 μg/ml) to assess COM growth inhibition. To facilitate comparison of peptides in Table 1, Applicants calculated the percent reduction in COM growth rate using the relative difference in ISE slopes (units of ppm Ca^2+ per time) for peptide and control samples during the first 40 min of crystallization.
The slope of ISE curves (FIG. 2A) is the temporal change in free Ca^2+ concentration due to COM nucleation (primary and secondary) and crystal growth. Deconvoluting these two processes (nucleation and growth) from ISE data is nontrivial, particularly if one wishes to extract detailed kinetic information of COM growth rates. […] In the current study, the distinct advantage of ISE compared to more traditional approaches is its ease of use and the rapid time for data acquisition that enables high-throughput analysis of large peptide libraries.
A quantitative comparison of peptide efficacy for inhibiting COM crystallization was performed using in situ ISE measurements. The percent inhibition in COM growth rate was calculated using the relative difference in ISE slopes in the presence of 20 μg/mL peptide. […] The effect of Asp with Glu in peptide sequences was measured on COM growth inhibition (Table 2).

[2] = Wang et al. [11]; similar citrate concentration, lower supersaturation S=1.3; cited from earlier work
[3] = Kinetic studies of COM growth at 60° C. using the calcium assay over 24 hours; settings: 20 μg/mL peptide, 24-hour period
Experimental: A second library of peptides containing glutamic acid (E) and alanine (A) amino acids was synthesized. The sequences of E-peptides shown in Table 2 were used in bulk crystallization studies and kinetic studies to assess their role as growth inhibitors or promoters of COM crystallization. […] These analyses were performed using the calcium assay to track the kinetics of crystallization over a 24-hour period. The calcium ion concentration in the supernatant solution was assessed at periodic times.
(§1) Free calcium concentration in the crystallization solution was measured by a colorimetric assay using Quantichrome DICA 500 Calcium assay kit (BioAssay Systems, Hayward, Calif.). Standard solutions (0, 0.1, 0.2, 0.3, 0.4, 0.5, and 1 mM) were prepared using calcium solutions provided with the kit. Detection reagent was prepared by mixing equal volumes of reagent A and reagent B according to manufacturer's instructions. A 10 μL sample was withdrawn from the top of each crystallization well without disturbing the bottom and dispensed into a 96-well microplate. 100 μL of detection reagent was added to each well and incubated for 3 minutes at room temperature. The absorbance was measured at 612 nm using Biotek Synergy H4 microplate reader (BioTek, Winooski, Vt.). Calcium concentration was determined using a calibration curve prepared from standard calcium solutions.

[4] = Bulk crystallization studies of COM crystal size and habit (optical microscopy, SEM, AFM)
Experimental: FIGS. 4A-4B show macroscopic characterization of COM crystals from bulk crystallization in solutions of 0.5 mM CaC2O4 and 20 μg/ml peptide. Optical microscopy was used to measure: Percent distribution of elongated hexagonal platelet (shaded bars) and diamond platelet (pattern bars) crystal morphologies (FIG. 4A); and length of the COM (100) basal surface measured along the direction (i.e. apical tip-to-tip distance) for hexagonal and diamond morphologies (FIG. 4B). Data in (FIG. 4A) and (FIG. 4B) are the average of three separate crystallization experiments performed at 60° C. for 3 days (error bars equal one standard deviation). Data for peptide D4 (diamond habit) was omitted based on too few crystals for statistical analysis;
COM crystals for bulk crystallization studies were synthesized using a reported procedure that produces micron-sized crystals with large basal (100) surfaces. COM crystals prepared with molar composition 0.7 mM CaCl2: 0.7 mM Na2C2O4: 150 mM NaCl are referred to as the control. Growth solutions prepared with peptides used 20 μg/ml of the additive (unless otherwise stated). The crystals were characterized by optical microscopy using a Leica DM2500-M microscope, scanning electron microscope (SEM) using a FEI 235 Dual-Beam Focused Ion-beam instrument, atomic force microscopy (AFM) using an Asylum MFP-3D-SA instrument (Santa Barbara, Calif.), and a calcium ion-selective electrode (ISE, ThermoScientific).
ISE measurements can be used to screen peptide efficacy, but provide little information regarding the specificity of peptide binding to different surfaces of COM crystals. To this end, Applicants used a second analysis step to identify the effect of peptides on COM crystal size and habit. The influence of the peptide library on macroscopic properties of COM crystals was assessed using bulk crystallization studies and optical and scanning electron microscopy to characterize COM crystals grown in the presence of peptides. In vitro, COM crystallization yields elongated hexagonal platelets with {100} basal surfaces bounded by {010} and crystallographically equivalent {121} apical surfaces (FIG. 3A). […] Applicants observed that multiple peptides in the library reduced growth along the directions, which decreased the crystal aspect ratio (length-to-width) and shifted the morphology from hexagonal to diamond platelets. This change in crystal habit can be attributed to the preferential binding of peptides to COM {121} surfaces, which slows growth along the naturally fast growth directions within the (100) plane.
To more systematically assess the surface topography of COM crystals, Applicants used atomic force microscopy (AFM) to probe the effect of peptides on COM (100) surface roughness. Crystals extracted from control and peptide D5 batches were prepared on AFM sample disks and imaged in air. The RMS roughness for (100) surfaces of hexagonal-shaped crystals from the control and test peptide D5 were approximately 1.0 and 4.3 nm, respectively.
Crystal batches prepared in bulk studies were analyzed using optical microscopy to quantify changes in COM crystal size and aspect ratio. […] Although there were clear differences in the percent population of diamond-shaped crystals among peptides tested in this study, Applicants observed that the size of diamond crystals were generally the same, irrespective of peptide sequence (FIG. 4B). The majority of COM hexagonal platelets in peptide samples had similar size and aspect ratio as the control (here Applicants only report the length of COM crystals in FIG. 4B). A notable exception, however, was peptide D4, which produced a 22% increase in the length-to-width aspect ratio of COM hexagonal crystals, and an increase in the length from 35 μm (control) to 75 μm (peptide D4).

[5] = High-throughput colorimetric calcium depletion assay (crystallization half-time); settings: 37° C., crystallization volume 600 μL, shaking; logistic fit
Experimental: as §1
Time course of depletion of free calcium in the crystallization solution, normalized to the initial concentration, was fitted to a nonlinear logistic function using OriginPro Software (Origin Lab, Northhampton, Mass.). The logistic function relating calcium concentration to time is given by
where [Ca]t is the normalized calcium concentration at time t, A1 is the normalized initial supersaturation concentration (i.e at t=0), A2 is the normalized equilibrium concentration (i.e. at t=∞), p is the hill coefficient which represents slope of the curve at midpoint, and t1/2 is the crystallization half-time (CHT), defined as the time at which crystallization is 50% complete (i.e. [Ca]t1/2=[…]). A1 was fixed at 1, and A2, p and t1/2 were obtained from fitting the data to equation 1. CHT was used as a measure of inhibition potentials of the peptides. A one-way ANOVA in combination with Tukey post hoc test at p<0.05 level was used to probe statistical significance. Applicants' studied the effects of experimental parameters including volume, shaking and temperature on crystallization in designing a high-throughput screening assay. Applicants have shown the logistic model effectively represents the three phases: induction, crystal growth and equilibrium observed in our setup, and CHT (t1/2) can be used as a measure of efficacy of potential crystal growth modifiers. The peptide library screened comprised of Asp and Ala residues (peptides D1-D13) at optimized assay conditions of 37° C., crystallization volume of 600 μL in a shaking environment. […] The high throughput of the assay provides the opportunity to assess the growth modulation potential of crystal growth modifiers at varying modifier concentrations, supersaturations and ionic strengths with relative ease. […] Finally, the assay can be translated to other crystallization systems in a relatively straightforward fashion for rational design and discovery of growth modifiers for specific applications.

O=C(O)CC(O)(CC(=O)O)C(=O)O [citrate, reference compound]
percent reduction in COM growth rate [1]: 28±6% | reduction in COM growth rate [2]: 48%

A-E-A-E-A-E-A-E-A-E-A-E-A-E-A-E-A-E (AEAEAEAEAEAEAEAEAE; Synthesized Calcium oxalate monohydrate inhibitory polypeptide) [E10]
inhibition of COM crystal growth (calcium in supernatant over time) [3]: inhibition of COM crystal growth; also recorded: more effective inhibitor than E11

ADAADAADAADAADAADA (Synthesized Calcium oxalate monohydrate inhibitory polypeptide) [D4]
percent reduction in COM growth rate [1]: 20% | % inhibition ([1]; ISE slopes in the presence of 20 μg/mL peptide, comparison X = D vs X = E): 21 ± 10% | [001] length of COM hexagonal crystals ([4]; 20 μg/ml peptide, control 35 μm): 75 μm | increase in the length-to-width aspect ratio of COM hexagonal crystals ([4]; 20 μg/ml peptide, vs control (2.67±0.05)): 22% | COM crystal habit / morphology ([4]; SEM, bulk crystallization with 20 μg/ml peptide): higher length-to-width aspect ratio | CHT (hr), crystallization half-time [5]: 4.432 h

ADAADDAADAADDAAAAA (Synthesized Calcium oxalate monohydrate inhibitory polypeptide) [D5]
percent reduction in COM growth rate [1]: 30% | percentage of diamond-shaped crystals in total crystal population ([4]; 20 μg/ml peptide, 60° C. for 3 days, optical microscopy, average of three experiments): largest populations of diamond-shaped crystals | RMS roughness of diamond-shaped crystals ([4]; AFM imaged in air): 3.2 nm | RMS roughness of (100) surfaces of hexagonal-shaped crystals ([4]; AFM imaged in air, control approximately 1.0 nm): ~4.3 nm | CHT (hr), crystallization half-time [5]: 4.641 h

E-E-E-E-E-E-E-E-E-E-E-E-E-E-E-E-E-E (EEEEEEEEEEEEEEEEEE; Synthesized Calcium oxalate monohydrate inhibitory polypeptide) [E11]
inhibition of COM crystal growth (calcium in supernatant over time) [3]: inhibition of COM crystal growth
